# Values joined by “and” are separate entries in the source; they are usually repeats but may differ in a detail not shown here. Identical values can stand only once. Like-named read-outs stand apart in the source and are kept apart here. Where no end group is shown, it is not given here.
# What was measured:
# [1] = system: non-expressing oocytes; test: cells; type: cell-based, Xenopus laevis
# From the text: The orientation of PfCRT in the parasite’s DV membrane, and also in the oocyte plasma membrane, is such that its N- and C-termini extend into the cytosol. The oocytes were suspended in a reaction buffer adjusted to pH 5.5 to mimic the pH of the DV lumen[1],[2]. In this scenario, the transport of a substrate via PfCRT from the acidic extracellular solution into the oocyte cytosol[15] is analogous to the parasite’s PfCRT-mediated efflux of a substrate from the acidic DV and into the cytosol. Unless specified otherwise, this is the direction in which substrate transport was measured in the oocyte assays.
# (§1) Unless specified otherwise, the transport assays were conducted over 1.5 h at 27.5 °C and the reaction buffer was ND96 (96 mM NaCl, 2 mM KCl, 1 mM MgCl2, 1.8 mM CaCl2, 10 mM MES and 10 mM Tris-base) at pH 5.5.
# Ten oocytes were washed twice with the relevant ND96 buffer. […] The assay was terminated by removing the reaction buffer and washing the oocytes with ice-cold ND96 buffer. The oocytes were lysed in 10% (w/v) sodium dodecyl sulfate (SDS) and the radioactivity accumulated within each oocyte was measured with a MicroBeta^2 microplate liquid scintillation analyser (PerkinElmer).
# (§2) At least four independent experiments were performed (on different days and using oocytes from different frogs), and within each experiment measurements were made from ten oocytes per treatment.
# [2] = system: non-expressing oocytes; type: cell-based, Xenopus laevis
# Method: as §1
# The intracellular concentrations were calculated using previous estimates of the volume of stage V–VI oocytes (~400 nL[60]). […] The oocytes were injected with VF-6 suspended in 25 nL ND96 buffer adjusted to pH 5.0, 5.5, 6.0 or 7.0, which corresponded to the injection of 2.5–250 fmol of H^+. The Na^+-dependence of the trans-stimulatory effect of VF-6 was assessed by injecting the oocytes with VF-6 suspended in ND96 buffer (pH 5.5) or a Na^+-free version of this buffer (the Na^+ was replaced with choline).
# as §2
# [3] = biological target: T1, PfCRT^Dd2 (Plasmodium falciparum, UniProt Q9N623, A220S/I356T/K76T/M74I/N326S/N75E/Q271E/R371I); test: [3H]CQ uptake into Xenopus oocytes, cis-inhibition by unlabelled solute; type: cell-based; conditions: for PfCRT-mediated [3H]CQ transport, cis-inhibition (% PfCRTDd2 control): PfCRTDd2 oocytes, background [3H]CQ accumulation subtracted, normalised to oocyte type control
# T1 sequence (Q9N623 whole entry A220S/I356T/K76T/M74I/N326S/N75E/Q271E/R371I): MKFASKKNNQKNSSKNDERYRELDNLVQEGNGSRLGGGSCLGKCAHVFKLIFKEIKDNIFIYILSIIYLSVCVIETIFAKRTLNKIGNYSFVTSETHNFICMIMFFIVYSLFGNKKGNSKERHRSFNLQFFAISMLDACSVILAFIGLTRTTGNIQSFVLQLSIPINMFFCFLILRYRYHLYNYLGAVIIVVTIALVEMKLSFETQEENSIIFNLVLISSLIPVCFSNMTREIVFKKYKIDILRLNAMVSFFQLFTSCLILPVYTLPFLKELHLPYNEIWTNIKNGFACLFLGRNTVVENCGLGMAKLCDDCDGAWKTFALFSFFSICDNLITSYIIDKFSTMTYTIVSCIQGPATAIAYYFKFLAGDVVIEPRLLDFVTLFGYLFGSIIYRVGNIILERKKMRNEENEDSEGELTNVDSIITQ
# Summary of the method: (§3)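 Radioactivity accumulated per oocyte, read by liquid scintillation after 10% SDS lysis, served as the uptake measure. Incubations ran 1.5 h at 27.5 °C in ND96 at pH 5.5, matching digestive-vacuole acidity.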
# [4] = biological target: T2, PfCRT^Ecu1110 (Plasmodium falciparum, UniProt Q9N623, A220S/I356L/K76T/N326D); test: as above; type: cell-based; conditions: for PfCRT-mediated [3H]CQ transport, cis-inhibition (% PfCRTEcu1110 control): PfCRTEcu1110 oocytes, background [3H]CQ accumulation subtracted, normalised to oocyte type control; for [3H]CQ transport (% PfCRTEcu1110 control), cis-inhibition, PfCRTEcu1110: PfCRT-mediated component (background subtracted), sheet title says normalised to PfCRTDd2 control, mean ± SEM
# T2 sequence (Q9N623 whole entry A220S/I356L/K76T/N326D): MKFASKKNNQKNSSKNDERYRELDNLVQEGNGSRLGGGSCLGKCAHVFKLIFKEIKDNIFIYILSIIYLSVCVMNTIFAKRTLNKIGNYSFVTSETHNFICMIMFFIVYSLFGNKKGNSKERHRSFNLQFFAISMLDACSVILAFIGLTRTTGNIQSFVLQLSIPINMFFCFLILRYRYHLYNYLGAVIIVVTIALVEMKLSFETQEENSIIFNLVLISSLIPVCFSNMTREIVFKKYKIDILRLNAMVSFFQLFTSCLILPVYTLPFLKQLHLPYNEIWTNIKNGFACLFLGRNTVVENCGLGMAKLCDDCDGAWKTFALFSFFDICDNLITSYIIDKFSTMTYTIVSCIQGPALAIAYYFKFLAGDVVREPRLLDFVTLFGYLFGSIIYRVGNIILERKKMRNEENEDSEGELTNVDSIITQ
# Summary of the method: as §3
# [5] = biological target: PfCRT^3D7 (Plasmodium falciparum, UniProt Q8IBZ9); test: cell-based; type: cell-based; conditions: for [3H]CQ transport, PfCRT3D7 (% PfCRT3D7 control): solute 45 mM injected (estimated intracellular)
# PfCRT^3D7, sequence (Q8IBZ9 59-398): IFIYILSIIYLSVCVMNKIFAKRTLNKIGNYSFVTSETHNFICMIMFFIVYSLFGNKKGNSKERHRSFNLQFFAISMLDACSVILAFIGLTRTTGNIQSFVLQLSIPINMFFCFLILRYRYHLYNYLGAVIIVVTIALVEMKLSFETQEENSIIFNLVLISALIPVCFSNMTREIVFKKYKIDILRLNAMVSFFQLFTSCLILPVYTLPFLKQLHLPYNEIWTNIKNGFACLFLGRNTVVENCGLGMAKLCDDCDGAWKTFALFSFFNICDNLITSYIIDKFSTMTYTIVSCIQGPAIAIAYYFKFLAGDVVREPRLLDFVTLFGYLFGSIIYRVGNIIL
# Summary of the method: (§4)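 Transport measured in Xenopus oocytes expressing the transporters, 1.5 h at 27.5 °C in ND96 pH 5.5 unless noted. For trans-stimulation, VF-6 injected in 25 nL ND96 at pH 5.0–7.0 or Na^+-free (choline) buffer; intracellular levels based on ~400 nL oocyte volume. Ten oocytes per treatment, ≥4 experiments.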
# [6] = biological target: T1, PfCRT^Dd2; test: cell-based; type: cell-based
# Summary of the method: as §4
# [7] = biological target: T3, PfNT1 (Plasmodium falciparum, UniProt Q8IDM6); test: cell-based; type: cell-based; conditions: trans-stimulation, solute 45 mM injected (estimated intracellular)
# T3 construct: expressed in transfected cells; host or cells: Xenopus laevis oocytes (stage V-VI), cRNA-injected
# T3 sequence (Q8IDM6 whole entry): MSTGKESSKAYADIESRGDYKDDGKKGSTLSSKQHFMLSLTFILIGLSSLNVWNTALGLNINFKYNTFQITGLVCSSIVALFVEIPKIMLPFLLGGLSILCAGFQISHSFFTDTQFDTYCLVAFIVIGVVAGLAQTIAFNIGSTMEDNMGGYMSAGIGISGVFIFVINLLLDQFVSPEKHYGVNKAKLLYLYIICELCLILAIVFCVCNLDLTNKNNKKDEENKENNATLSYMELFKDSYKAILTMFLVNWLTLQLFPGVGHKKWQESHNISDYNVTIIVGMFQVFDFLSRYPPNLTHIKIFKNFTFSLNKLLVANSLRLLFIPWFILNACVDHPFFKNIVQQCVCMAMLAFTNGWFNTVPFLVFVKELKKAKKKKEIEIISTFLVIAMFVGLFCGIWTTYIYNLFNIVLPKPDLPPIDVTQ
# Summary of the method: as §4
# [8] = biological target: T2, PfCRT^Ecu1110; test: cell-based; type: cell-based; conditions: for [3H]CQ transport (% PfCRTDd2 control), trans-stimulation, PfCRTEcu1110: PfCRT-mediated component (background subtracted), sheet title says normalised to PfCRTDd2 control, mean ± SEM, SEM
# Summary of the method: as §4
# [9] = trans-stimulation, Experiment 1
# [10] = trans-stimulation, Experiment 2
# [11] = trans-stimulation, Experiment 3
# [12] = trans-stimulation, Experiment 4
# [13] = read-out: PfCRT-mediated [3H]CQ transport, cis-inhibition (% PfCRTDd2 control)
# [14] = read-out: PfCRT-mediated [3H]CQ transport, cis-inhibition (% PfCRTEcu1110 control)
# [15] = read-out: [3H]CQ transport (% PfCRTEcu1110 control), cis-inhibition, PfCRTEcu1110, SEM
compound,measurement,setting,value
NCCCNCCCCNCCCN [Spermine],"Cis-inhibition data: total [3H]CQ transport, normalised to the oocyte type control",[1],99 ± 3.7 and 99 ± 4.1 and 100 ± 4.8
same,"Trans-stimulation data: total [3H]CQ transport, normalised to the oocyte type control",[2],99 ± 3.8 and 98 ± 2.9
YFPHF [YF-5],"PfCRT-mediated [3H]CQ transport, cis-inhibition (% PfCRTDd2 control)",[3]; [test solute] = 0.5 mM,53 ± 3.1 % PfCRTDd2 control
same,"PfCRT-mediated [3H]CQ transport, cis-inhibition (% PfCRTDd2 control)",[3]; [test solute] = 1 mM,39 ± 2.1 % PfCRTDd2 control
same,"PfCRT-mediated [3H]CQ transport, cis-inhibition (% PfCRTDd2 control)",[3]; [test solute] = 2 mM,7.2 ± 0.1 % PfCRTDd2 control
same,"PfCRT-mediated [3H]CQ transport, cis-inhibition (% PfCRTEcu1110 control)",[4]; [test solute] = 0.5 mM,63 ± 3.5 % PfCRTEcu1110 control
same,"PfCRT-mediated [3H]CQ transport, cis-inhibition (% PfCRTEcu1110 control)",[4]; [test solute] = 1 mM,48 ± 1.0 % PfCRTEcu1110 control
same,"PfCRT-mediated [3H]CQ transport, cis-inhibition (% PfCRTEcu1110 control)",[4]; [test solute] = 2 mM,32 ± 2.1 % PfCRTEcu1110 control
same,"[3H]CQ transport (% PfCRTEcu1110 control), cis-inhibition, PfCRTEcu1110","[4]; [test solute] = 0.5 mM, SEM",20 ± 0.4 % PfCRTEcu1110 control
same,"[3H]CQ transport (% PfCRTEcu1110 control), cis-inhibition, PfCRTEcu1110","[4]; [test solute] = 1 mM, SEM",15 ± 0.1 % PfCRTEcu1110 control
same,"[3H]CQ transport (% PfCRTEcu1110 control), cis-inhibition, PfCRTEcu1110","[4]; [test solute] = 2 mM, SEM",10 ± 0.3 % PfCRTEcu1110 control
same,"PfCRT-mediated [3H]CQ transport, trans-stimulation (% PfCRT3D7 control)","[5]; [test solute]i = 5 mM (intracellular), PfCRT3D7 oocytes, normalised to oocyte type control",128 ± 2.3 % PfCRT3D7 control
same,"PfCRT-mediated [3H]CQ transport, trans-stimulation (% PfCRT3D7 control)","[5]; [test solute]i = 45 mM (intracellular; 30 mM for some solutes due to solubility), PfCRT3D7 oocytes, normalised to oocyte type control",147 ± 4.2 % PfCRT3D7 control
same,"[3H]CQ transport, PfCRT3D7 (% PfCRT3D7 control)",[5]; [9],142.23 % PfCRT3D7 control
same,"[3H]CQ transport, PfCRT3D7 (% PfCRT3D7 control)",[5]; [10],155.33 % PfCRT3D7 control
same,"[3H]CQ transport, PfCRT3D7 (% PfCRT3D7 control)",[5]; [11],162.85 % PfCRT3D7 control
same,"[3H]CQ transport, PfCRT3D7 (% PfCRT3D7 control)",[5]; [12],149.32 % PfCRT3D7 control
same,"PfCRT-mediated [3H]CQ transport, trans-stimulation (% PfCRTDd2 control)","[6]; [test solute]i = 5 mM (intracellular), PfCRTDd2 oocytes, normalised to oocyte type control",97 ± 3.4 % PfCRTDd2 control
same,"PfCRT-mediated [3H]CQ transport, trans-stimulation (% PfCRTDd2 control)","[6]; [test solute]i = 45 mM (intracellular; 30 mM for some solutes due to solubility), PfCRTDd2 oocytes, normalised to oocyte type control",113 ± 2.4 % PfCRTDd2 control
same,"[3H]CQ transport (% PfCRTDd2 control), trans-stimulation, PfCRTDd2","[6]; [test solute]i = 5 mM (injected), PfCRT-mediated component (background subtracted), mean ± SEM, SEM",97 ± 3.4 % PfCRTDd2 control
same,"[3H]CQ transport (% PfCRTDd2 control), trans-stimulation, PfCRTDd2","[6]; [test solute]i = 45 mM (30 mM for some solutes due to solubility), PfCRT-mediated component (background subtracted), mean ± SEM, SEM",113 ± 2.4 % PfCRTDd2 control
same,"[3H]CQ transport, PfNT1 (% PfCRTDd2 control)",[7]; Experiment 1,2.73 % PfCRTDd2 control
same,"[3H]CQ transport, PfNT1 (% PfCRTDd2 control)",[7]; Experiment 2,2.48 % PfCRTDd2 control
same,"[3H]CQ transport, PfNT1 (% PfCRTDd2 control)",[7]; Experiment 3,2.58 % PfCRTDd2 control
same,"[3H]CQ transport, PfNT1 (% PfCRTDd2 control)",[7]; Experiment 4,2.37 % PfCRTDd2 control
same,"PfCRT-mediated [3H]CQ transport, trans-stimulation (% PfCRTEcu1110 control)","[8]; [test solute]i = 5 mM (intracellular), PfCRTEcu1110 oocytes, normalised to oocyte type control",120 ± 2.7 % PfCRTEcu1110 control
same,"PfCRT-mediated [3H]CQ transport, trans-stimulation (% PfCRTEcu1110 control)","[8]; [test solute]i = 45 mM (intracellular; 30 mM for some solutes due to solubility), PfCRTEcu1110 oocytes, normalised to oocyte type control",131 ± 3.6 % PfCRTEcu1110 control
same,"[3H]CQ transport (% PfCRTDd2 control), trans-stimulation, PfCRTEcu1110",[8]; [test solute]i = 5 mM (injected),37 ± 1.5 % PfCRTEcu1110 control
same,"[3H]CQ transport (% PfCRTDd2 control), trans-stimulation, PfCRTEcu1110",[8]; [test solute]i = 45 mM (30 mM for some solutes due to solubility),40 ± 1.5 % PfCRTEcu1110 control
C[N+](C)(C)CCO [Choline],"Cis-inhibition data: total [3H]CQ transport, normalised to the oocyte type control",[1],100 ± 5.4 and 99 ± 4.3 and 98 ± 3.6
same,"Trans-stimulation data: total [3H]CQ transport, normalised to the oocyte type control",[2],99 ± 2.8 and 100 ± 2.6
HVDDM [HM-5],inhibition at 500 µM,[3]; [13],32 ± 0.8%
same,inhibition at 1000 µM,[3]; [13],19 ± 2%
same,inhibition at 2000 µM,[3]; [13],9 ± 0.1%
same,inhibition at 1000 µM,[4]; [14],41 ± 3.5%
same,inhibition at 2000 µM,[4]; [14],32 ± 2.1%
same,inhibition at 500 µM,[4]; [15],14 ± 0.1%
same,inhibition at 2000 µM,[4]; [15],10 ± 0.5%
same,activity at 5000 µM,"[5]; […], read-out: PfCRT-mediated [3H]CQ transport, trans-stimulation (% PfCRT3D7 control), [test solute]i = 5 mM (intracellular), PfCRT3D7 oocytes, normalised to oocyte type control",130 ± 4.2%
same,activity at 45000 µM,"[5]; […], read-out: PfCRT-mediated [3H]CQ transport, trans-stimulation (% PfCRT3D7 control), [test solute]i = 45 mM (intracellular; 30 mM for some solutes due to solubility), PfCRT3D7 oocytes, normalised to oocyte type control",178 ± 5.2%
same,"[3H]CQ transport, PfCRT3D7 (% PfCRT3D7 control)",[5]; [9],193.43 % PfCRT3D7 control
same,"[3H]CQ transport, PfCRT3D7 (% PfCRT3D7 control)",[5]; [10],185.08 % PfCRT3D7 control
same,"[3H]CQ transport, PfCRT3D7 (% PfCRT3D7 control)",[5]; [11],185.21 % PfCRT3D7 control
same,"[3H]CQ transport, PfCRT3D7 (% PfCRT3D7 control)",[5]; [12],174.23 % PfCRT3D7 control
same,"[3H]CQ transport (% PfCRT3D7 control), trans-stimulation, PfCRT3D7","[5]; trans-stimulation, [test solute]i = 5 mM (injected), PfCRT-mediated component (background subtracted), sheet title says normalised to PfCRTDd2 control, mean ± SEM, SEM",0.2 ± 0.01 % PfCRT3D7 control
same,activity at 5000 µM,"[6]; […], pH 5.5, read-out: PfCRT-mediated [3H]CQ transport, trans-stimulation (% PfCRTDd2 control), [test solute]i = 5 mM (intracellular), PfCRTDd2 oocytes, normalised to oocyte type control",100 ± 2.5%
same,activity at 5000 µM,"[6]; […], pH 5.5, read-out: [3H]CQ transport (% PfCRTDd2 control), trans-stimulation, PfCRTDd2, trans-stimulation, [test solute]i = 5 mM (injected), PfCRT-mediated component (background subtracted), mean ± SEM, SEM",100 ± 2.5%
same,activity at 45000 µM,"[6]; […], pH 5.5, read-out: [3H]CQ transport (% PfCRTDd2 control), trans-stimulation, PfCRTDd2, trans-stimulation, [test solute]i = 45 mM (30 mM for some solutes due to solubility), PfCRT-mediated component (background subtracted), mean ± SEM, SEM",113 ± 2.2%
same,"[3H]CQ transport, PfNT1 (% PfCRTDd2 control)",[7]; Experiment 1,3.35 % PfCRTDd2 control
same,"[3H]CQ transport, PfNT1 (% PfCRTDd2 control)",[7]; Experiment 2,3.11 % PfCRTDd2 control
same,"[3H]CQ transport, PfNT1 (% PfCRTDd2 control)",[7]; Experiment 3,3.44 % PfCRTDd2 control
same,"[3H]CQ transport, PfNT1 (% PfCRTDd2 control)",[7]; Experiment 4,3.27 % PfCRTDd2 control
same,activity at 5000 µM,"[8]; […], pH 5.5, read-out: PfCRT-mediated [3H]CQ transport, trans-stimulation (% PfCRTEcu1110 control), [test solute]i = 5 mM (intracellular), PfCRTEcu1110 oocytes, normalised to oocyte type control",122 ± 1.1%
